{"source": "paper PMC6426458", "about": "(Science Advances, 2019)", "key": {"[1]": {"test_system": "WT Mtb H37Rv", "assay_type": "cell-based, Mycobacterium tuberculosis"}, "[2]": {"test_system": "Δrel (H37Rv deficient in Rv2583c/relMtb)", "assay_type": "cell-based, Mycobacterium tuberculosis", "conditions": "nutrient-rich broth"}, "[3]": {"test_system": "rel Comp (relMtb-complemented strain)", "assay_type": "cell-based, Mycobacterium tuberculosis"}, "[4]": {"test_system": "WT H37Rv", "design": "species or system Mycobacterium tuberculosis", "conditions": "in vivo"}, "[5]": {"test_system": "Δrel", "design": "species or system Mycobacterium tuberculosis", "conditions": "in vivo"}, "[6]": {"test_system": "rel Comp", "design": "species or system Mycobacterium tuberculosis", "conditions": "in vivo"}, "[7]": {"test_system": "nutrient-starved empty vector control (CDC1551)", "assay_type": "cell-based, Mycobacterium tuberculosis", "conditions": "INH 15.36 μg/ml, 7 days of exposure"}, "[8]": {"test_system": "Mtb following exposure to NS", "conditions": "cited from earlier work"}, "[9]": {"test_system": "relMtb-deficient Mtb", "conditions": "nutrient-rich broth; cited from earlier work"}, "[10]": {"molecular_target": "T1, RelMtb (truncated, residues 53 to 446) (Mycobacterium tuberculosis, UniProt P9WHG9)", "T1 sequence (P9WHG9 1-394)": "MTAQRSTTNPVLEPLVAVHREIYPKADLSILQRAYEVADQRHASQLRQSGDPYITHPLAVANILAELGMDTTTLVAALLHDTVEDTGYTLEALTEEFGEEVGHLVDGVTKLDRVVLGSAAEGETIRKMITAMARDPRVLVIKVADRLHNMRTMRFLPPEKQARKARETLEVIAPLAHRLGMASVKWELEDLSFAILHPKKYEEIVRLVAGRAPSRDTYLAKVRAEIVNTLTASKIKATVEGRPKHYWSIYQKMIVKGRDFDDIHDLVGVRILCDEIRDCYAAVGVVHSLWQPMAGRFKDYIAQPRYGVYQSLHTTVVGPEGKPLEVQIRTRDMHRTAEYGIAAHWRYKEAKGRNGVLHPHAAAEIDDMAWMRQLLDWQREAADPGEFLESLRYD", "experiment": "RelMtb enzymatic fluorescence polarization", "assay_type": "biochemical"}}}
{"compound": "NNC(=O)c1ccncc1", "note": "[INH, isoniazid]", "values": [{"measurement": "MBC of INH (concentration required to kill 99%)", "setting": "[1]", "result": 0.06, "unit": "µg/mL"}, {"measurement": "fold decrease of MBC of INH", "setting": "[1]", "result": 16, "unit": "fold"}, {"measurement": "fold increase of MBC of INH", "setting": "[1]", "result": 512, "unit": "fold"}, {"measurement": "MBC of INH (concentration required to kill 99%)", "setting": "[2]", "result": 0.06, "unit": "µg/mL"}, {"measurement": "fold increase of MBC of INH", "setting": "[3]; 7 days of NS versus nutrient-rich broth", "result": 512, "unit": "fold"}, {"measurement": "fold decrease of MBC of INH", "setting": "[3]; 7 days of NS, in the presence of 4 μM X9", "result": 16, "unit": "fold"}, {"measurement": "MBC of INH (concentration required to kill 99%)", "setting": "[3]; nutrient-rich broth", "result": 0.06, "unit": "µg/mL"}, {"measurement": "reduction of lung bacillary burden relative to the start of treatment", "setting": "[4]", "result": 0.11, "unit": "log10"}, {"measurement": "bacilli killed in the lungs during 2 weeks of treatment", "setting": "[5]", "result": 2.03, "unit": "log10"}, {"measurement": "reduction of lung bacterial load", "setting": "[6]", "result": 0.48, "unit": "log10"}, {"measurement": "mean reduction of bacterial density (CFU/ml)", "setting": "[7]", "result": 1.43, "unit": "log10 CFU"}, {"measurement": "fold increase in the MBC of INH", "setting": "[8]", "result": "> 100", "unit": "fold"}, {"measurement": "MIC against relMtb-deficient Mtb compared with the WT strain", "setting": "[9]", "result": "the same as that against the WT strain"}]}
{"compound": "Nc1nc2c(ncn2[C@@H]2O[C@H](COP(=O)(O)OP(=O)(O)OP(=O)(O)OP(=O)(O)OC[C@H]3O[C@@H](n4cnc5c(N)ncnc54)[C@H](O)[C@@H]3O)[C@@H](O)[C@H]2O)c(=O)[nH]1", "note": "[AP4G]", "values": [{"measurement": "IC50", "setting": "[10]", "result": 1.8, "unit": "mM"}]}
{"compound": "Nc1ncnc2c1ncn2[C@@H]1O[C@H](COP(=O)(O)CP(=O)(O)OP(=O)(O)O)[C@@H](O)[C@H]1O", "note": "[AMPCPP, α,β-methylene analogue of ATP]", "values": [{"measurement": "IC50", "setting": "[10]", "result": 6.2, "unit": "mM"}]}
{"compound": "Nc1nc2c(ncn2[C@@H]2O[C@H](COP(=O)(O)OP(=O)(O)OP(=O)(O)O)C[C@H]2O)c(=O)[nH]1", "note": "[3′-dGTP]", "values": [{"measurement": "IC50", "setting": "[10]", "result": 4, "unit": "mM"}]}
{"compound": "CO[C@H]1/C=C/O[C@@]2(C)Oc3c(C)c(O)c4c(O)c(c(/C=N/N5CCN(C)CC5)c(O)c4c3C2=O)NC(=O)/C(C)=C\\C=C\\[C@H](C)[C@H](O)[C@@H](C)[C@@H](O)[C@@H](C)[C@H](OC(C)=O)[C@@H]1C", "note": "[rifampin]", "values": [{"measurement": "MIC against relMtb-deficient Mtb compared with the WT strain", "setting": "[9]", "result": "the same as that against the WT strain"}]}
